Like-named read-outs stand apart in the source and are kept apart here.

The target in one assay is B-Raf delta1-415 (Homo sapiens, UniProt P15056). Description: B-Raf kinase inhibition (MAPH filter plate, 33P-ATP, MEK1 substrate). The conditions noted are these: read-out: Biochemical IC50 B-Raf. Summed up: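 IC50 values come from dilution series (top 10 μM) measured by scintillation counting of 33P-labelled MEK1 retained on H3PO4-washed filters. Reactions ran 1 h at room temperature in pH 7.0 Mops buffer with MgCl2, MnCl2 and DTT, using 12.5 μCi/ml [γ-33P]ATP and B-Raf delta1-415 titrated to 50% turnover.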

The next assay concerns HT-29 tumor cells. Description: Anti-proliferative activity, SRB assay. In kind it is cell-based, human. The conditions noted are these: 72 hours exposure, read-out: CELLULAR IC50 HT-29. In outline:
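IC50 derived from % inhibition relative to DMSO controls, measured by sulforhodamine B binding (OD570) after TCA fixation. Cells (3,000-15,000 per well) were seeded a day ahead, then treated with graded compound concentrations for 72 hours.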
On the technique in general: In SRB staining, fixed cells bind dye roughly in proportion to their protein.

B-Raf delta1-415, sequence (P15056 416-766): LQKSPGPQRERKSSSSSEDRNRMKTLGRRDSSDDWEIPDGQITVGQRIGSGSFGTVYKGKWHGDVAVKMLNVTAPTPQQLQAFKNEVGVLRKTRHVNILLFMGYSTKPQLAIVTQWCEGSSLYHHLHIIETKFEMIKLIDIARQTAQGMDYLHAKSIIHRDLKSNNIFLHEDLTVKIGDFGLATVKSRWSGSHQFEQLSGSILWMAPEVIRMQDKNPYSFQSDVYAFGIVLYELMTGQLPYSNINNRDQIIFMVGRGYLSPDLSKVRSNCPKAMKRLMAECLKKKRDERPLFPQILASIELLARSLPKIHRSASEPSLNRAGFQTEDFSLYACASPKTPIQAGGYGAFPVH

`COn1c(=O)c(-c2c(Cl)cccc2Cl)cc2cnc(Nc3cccc(S(=O)(=O)N4CCOCC4)c3)nc21` [Compound 127, 6-(2,6-Dichlorophenyl)-2-(3-morpholinosulfonylphenyl)-amino-8-methoxy-pyrido[2,3-d]pyrimidin-7-one]: the IC50 on B-Raf delta1-415 was less than 500 nM; with HT-29 tumor cells (Homo sapiens, HT-29, 72 h) it was less than 1000 nM.

As to `CCOn1c(=O)c(-c2c(F)cccc2Cl)cc2cnc(Nc3ccc(N4CCOCC4)cc3)nc21` [Compound 128], the IC50 is less than 100 nM on B-Raf delta1-415 and less than 1000 nM with HT-29 tumor cells (Homo sapiens, HT-29, 72 h).

As to `O=c1c(-c2c(F)cccc2Cl)cc2cnc(Nc3ccc(N4CCOCC4)cc3)nc2n1OCC1CC1` [Compound 129], the IC50 was less than 100 nM on B-Raf delta1-415 and less than 1000 nM with HT-29 tumor cells (Homo sapiens, HT-29, 72 h).

As to `COn1c(=O)c(-c2c(Cl)cccc2Cl)cc2cnc(Nc3cccc(-c4nnn[nH]4)c3)nc21` [Compound 130, 6-(2,6-Dichlorophenyl)-8-methoxy-2-(3-tetrazol-5-ylphenyl)-amino-pyrido[2,3-d]pyrimidin-7-one], the IC50 at B-Raf delta1-415 was less than 500 nM; in the assay with HT-29 tumor cells (Homo sapiens, HT-29, 72 h) it was more than 10000 nM.

With `CNC(=O)c1cccc(Nc2ncc3cc(-c4c(Cl)cccc4Cl)c(=O)n(OC)c3n2)c1` [Compound 131, 6-(2,6-Dichlorophenyl)-8-methoxy-2-(3-methylaminocarbonylphenyl)-amino-pyrido[2,3-d]pyrimidin-7-one], the IC50 at B-Raf delta1-415 is less than 100 nM; in the assay on HT-29 tumor cells (Homo sapiens, HT-29, 72 h), less than 1000 nM.

In the case of `O=c1c(-c2c(F)cccc2Cl)cc2cnc(Nc3ccc(N4CCOCC4)cc3)nc2n1OCc1cccnc1` [Compound 132], the IC50 at B-Raf delta1-415 was less than 100 nM; in the assay on HT-29 tumor cells (Homo sapiens, HT-29, 72 h), less than 1000 nM.

For the molecule `COn1c(=O)c(-c2c(Cl)cccc2Cl)cc2cnc(Nc3ccc(C(F)(F)F)c(Cl)c3)nc21` [Compound 133, 2-(3-Chloro-4-trifluoromethylphenyl)-amino-6-(2,6-dichlorophenyl)-8-methoxy-pyrido[2,3-d]pyrimidin-7-one], the 50% inhibitory concentration (IC50) at B-Raf delta1-415 is more than 1000 nM; in the assay on HT-29 tumor cells (Homo sapiens, HT-29, 72 h), less than 10000 nM.

`COn1c(=O)c(-c2c(Cl)cccc2Cl)cc2cnc(Nc3cccc(Cn4cncn4)c3)nc21` [Compound 134, 6-(2,6-Dichlorophenyl)-8-methoxy-2-(3-(1,2,4-triazol-1-ylmethyl)phenyl)-amino-pyrido[2,3-d]pyrimidin-7-one]: the IC50 at B-Raf delta1-415 is less than 100 nM; in the assay on HT-29 tumor cells (Homo sapiens, HT-29, 72 h), less than 1000 nM.

Consider `COn1c(=O)c(-c2c(Cl)cccc2Cl)cc2cnc(Nc3ccncn3)nc21` [Compound 135, 6-(2,6-Dichlorophenyl)-8-methoxy-2-(pyrimidin-4-yl)-amino-pyrido[2,3-d]pyrimidin-7-one], for which the IC50 was less than 500 nM on B-Raf delta1-415 and less than 10000 nM with HT-29 tumor cells (Homo sapiens, HT-29, 72 h).

`COn1c(=O)c(-c2c(F)cccc2Cl)cc2cnc(Nc3ccc(N4CCOCC4)cc3)nc21` [Compound 136]: the concentration for half-maximal inhibition (IC50) on B-Raf delta1-415 is less than 100 nM; with HT-29 tumor cells (Homo sapiens, HT-29, 72 h) it was less than 1000 nM.

In the case of `COn1c(=O)c(-c2c(Cl)cccc2Cl)cc2cnc(Nc3cc(C(=O)N4CCOCC4)n(C)c3)nc21` [Compound 137, 6-(2,6-Dichlorophenyl)-8-methoxy-2-(5-morpholinocarbonyl-1-methyl-pyrrol-3-yl)-amino-pyrido[2,3-d]pyrimidin-7-one], the IC50 is less than 100 nM on B-Raf delta1-415 and less than 1000 nM in the assay with HT-29 tumor cells (Homo sapiens, HT-29, 72 h).

Take `COn1c(=O)c(-c2c(Cl)cccc2Cl)cc2cnc(Nc3nc(C(=O)N(C)CCO)cs3)nc21` [Compound 138, 6-(2,6-Dichlorophenyl)-8-methoxy-2-(4-N-(2-hydroxyethyl)-N-methyl-aminocarbonyl-thiazol-2-yl)-amino-pyrido[2,3-d]pyrimidin-7-one]: the figures for the IC50 on B-Raf delta1-415 and in the assay with HT-29 tumor cells were less than 1000 nM and less than 10000 nM, respectively.

Take `COn1c(=O)c(-c2c(Cl)cccc2Cl)cc2cnc(Nc3cc(C(=O)N(C)CCOC(=O)C(C)(C)C)n(C)c3)nc21` [Compound 140, 6-(2,6-Dichlorophenyl)-8-methoxy-2-(5-N-(2-(2,2-dimethylpropanoyl)oxyethyl)-N-methyl-aminocarbonyl-1-methyl-pyrrol-3-yl)-amino-pyrido[2,3-d]pyrimidin-7-one]: the half-inhibitory concentration (IC50) on B-Raf delta1-415 was less than 500 nM; in the assay on HT-29 tumor cells (Homo sapiens, HT-29, 72 h), less than 1000 nM.

Regarding `COn1c(=O)c(-c2c(Cl)cccc2Cl)cc2cnc(Nc3cc(C(=O)N(C)CCOC(=O)c4ccccc4)n(C)c3)nc21` [Compound 141], the IC50 at B-Raf delta1-415 was less than 500 nM; with HT-29 tumor cells (Homo sapiens, HT-29, 72 h), less than 1000 nM.

In the case of `COn1c(=O)c(-c2c(Cl)cccc2Cl)cc2cnc(Nc3csc(C(=O)N4CCN(C)CC4)c3)nc21` [Compound 142, 6-(2,6-Dichlorophenyl)-8-methoxy-2-(5-(4-methylpiperazino)carbonyl-thiophen-3-yl)-amino-pyrido[2,3-d]pyrimidin-7-one], the IC50 on B-Raf delta1-415 is less than 100 nM; in the assay on HT-29 tumor cells (Homo sapiens, HT-29, 72 h), less than 1000 nM.

Turning to `O=c1c(-c2c(F)cccc2Cl)cc2cnc(Nc3ccc(N4CCOCC4)cc3)nc2n1OCC1CCOCC1` [Compound 143], the IC50 is less than 100 nM on B-Raf delta1-415 and less than 1000 nM in the assay with HT-29 tumor cells (Homo sapiens, HT-29, 72 h).

Turning to `COn1c(=O)c(-c2c(Cl)cccc2Cl)cc2cnc(Nc3ccc(CO)cc3)nc21` [Compound 144, 6-(2,6-Dichlorophenyl)-2-(4-hydroxymethylphenyl)-amino-8-methoxy-pyrido[2,3-d]pyrimidin-7-one], the IC50 at B-Raf delta1-415 was less than 100 nM; with HT-29 tumor cells (Homo sapiens, HT-29, 72 h), less than 10000 nM.

For the molecule `COn1c(=O)c(-c2c(Cl)cccc2Cl)cc2cnc(NCc3ccccc3)nc21` [Compound 145, 6-(2,6-Dichlorophenyl)-8-methoxy-2-phenylmethylamino-pyrido[2,3-d]pyrimidin-7-one], the IC50 was less than 10000 nM at B-Raf delta1-415 and less than 10000 nM in the assay on HT-29 tumor cells (Homo sapiens, HT-29, 72 h).

As to `COn1c(=O)c(-c2c(Cl)cccc2Cl)cc2cnc(NCc3cccnc3)nc21` [Compound 146, 6-(2,6-Dichlorophenyl)-8-methoxy-2-pyrid-3-ylmethylamino-pyrido[2,3-d]pyrimidin-7-one], the IC50 is less than 500 nM on B-Raf delta1-415 and less than 10000 nM with HT-29 tumor cells (Homo sapiens, HT-29, 72 h).

In the case of `COn1c(=O)c(-c2c(Cl)cccc2Cl)cc2cnc(NCc3ccncc3)nc21` [Compound 147, 6-(2,6-Dichlorophenyl)-8-methoxy-2-pyrid-4-ylmethylamino-pyrido[2,3-d]pyrimidin-7-one], the IC50 at B-Raf delta1-415 was less than 500 nM; with HT-29 tumor cells (Homo sapiens, HT-29, 72 h), less than 10000 nM.

For the molecule `O=c1c(-c2c(F)cccc2Cl)cc2cnc(Nc3ccc(N4CCOCC4)cc3)nc2n1OC[C@@H](O)CO` [Compound 148], the IC50 on B-Raf delta1-415 was less than 100 nM; with HT-29 tumor cells (Homo sapiens, HT-29, 72 h), less than 1000 nM.

Turning to `O=c1c(-c2c(F)cccc2Cl)cc2cnc(Nc3ccc(N4CCOCC4)cc3)nc2n1OC[C@@H]1CCNC1` [Compound 149], the IC50 is less than 100 nM at B-Raf delta1-415 and less than 1000 nM in the assay with HT-29 tumor cells (Homo sapiens, HT-29, 72 h).

For the molecule `COn1c(=O)c(-c2c(Cl)cccc2Cl)cc2cnc(Nc3ccc(C)cc3)nc21` [Compound 150, 6-(2,6-Dichlorophenyl)-2-(4-methylphenyl)-amino-8-methoxy-pyrido[2,3-d]pyrimidin-7-one], the IC50 on B-Raf delta1-415 is more than 1000 nM; in the assay with HT-29 tumor cells (Homo sapiens, HT-29, 72 h), less than 10000 nM.

Turning to `COn1c(=O)c(-c2c(Cl)cccc2Cl)cc2cnc(Nc3ccc(Cc4n[nH]c(C)n4)cc3)nc21` [Compound 151, 6-(2,6-Dichlorophenyl)-8-methoxy-2-(4-(5-methyl-1,2,4-triazol-3-yl)methylphenyl)-amino-pyrido[2,3-d]pyrimidin-7-one], the IC50 at B-Raf delta1-415 was less than 500 nM; in the assay with HT-29 tumor cells (Homo sapiens, HT-29, 72 h), less than 1000 nM.

Turning to `O=c1c(-c2c(F)cccc2Cl)cc2cnc(Nc3ccc(N4CCOCC4)cc3)nc2n1OC[C@H](O)CO` [Compound 152], the half-maximal inhibitory concentration (IC50) on B-Raf delta1-415 is less than 100 nM; in the assay with HT-29 tumor cells (Homo sapiens, HT-29, 72 h) it was less than 1000 nM.

`O=c1c(-c2c(F)cccc2Cl)cc2cnc(Nc3ccccc3)nc2n1OCc1cccnc1` [Compound 153, 6-(2-Chloro-6-fluorophenyl)-2-phenylamino-8-(pyrid-3-ylmethyl)oxy-pyrido[2,3-d]pyrimidin-7-one]: the IC50 at B-Raf delta1-415 is less than 500 nM; in the assay on HT-29 tumor cells (Homo sapiens, HT-29, 72 h), less than 1000 nM.

Turning to `COCCN(C)C(=O)c1cc(Nc2ncc3cc(-c4c(Cl)cccc4Cl)c(=O)n(OC)c3n2)cn1C` [Compound 154, 6-(2,6-Dichlorophenyl)-8-methoxy-2-(5-N-(2-methoxyethyl)-N-methyl-aminocarbonyl-1-methyl-pyrrol-3-yl)-amino-pyrido[2,3-d]pyrimidin-7-one], the 50% inhibitory concentration (IC50) at B-Raf delta1-415 was less than 500 nM; in the assay on HT-29 tumor cells (Homo sapiens, HT-29, 72 h), less than 1000 nM.

On to `O=c1c(-c2c(F)cccc2Cl)cc2cnc(Nc3ccc(N4CCOCC4)cc3)nc2n1OC[C@H]1CCNC1` [Compound 155], for which the IC50 was less than 100 nM on B-Raf delta1-415 and less than 1000 nM with HT-29 tumor cells (Homo sapiens, HT-29, 72 h).

Take `COn1c(=O)c(-c2c(Cl)cccc2Cl)cc2cnc(Nc3cccc(CS(=O)(=O)NCCO)c3)nc21` [Compound 156, 6-(2,6-Dichlorophenyl)-2-(3-((2-hydroxyethylamino)sulfonylmethyl)phenyl)-amino-8-methoxy-pyrido[2,3-d]pyrimidin-7-one]: the half-inhibitory concentration (IC50) on B-Raf delta1-415 was less than 500 nM; in the assay on HT-29 tumor cells (Homo sapiens, HT-29, 72 h), less than 1000 nM.

Regarding `COn1c(=O)c(-c2c(Cl)cccc2Cl)cc2cnc(Nc3cccc(S(C)(=O)=O)c3)nc21` [Compound 157, 6-(2,6-Dichlorophenyl)-8-methoxy-2-(3-methylsulfonylphenyl)-amino-pyrido[2,3-d]pyrimidin-7-one], the IC50 at B-Raf delta1-415 is less than 100 nM; in the assay with HT-29 tumor cells (Homo sapiens, HT-29, 72 h), less than 1000 nM.

For `COn1c(=O)c(-c2c(Cl)cccc2Cl)cc2cnc(Nc3ccc(SCCCO)cc3)nc21` [Compound 158, 6-(2,6-Dichlorophenyl)-2-(4-(3-hydroxypropyl)thiophenyl)-amino-8-methoxy-pyrido[2,3-d]pyrimidin-7-one], the IC50 at B-Raf delta1-415 is less than 500 nM; in the assay with HT-29 tumor cells (Homo sapiens, HT-29, 72 h) it was less than 1000 nM.

Regarding `COn1c(=O)c(-c2c(Cl)cccc2Cl)cc2cnc(Nc3cc(C(=O)N(C)CCOC(=O)c4cccnc4)n(C)c3)nc21` [Compound 159], the IC50 was less than 500 nM at B-Raf delta1-415 and less than 1000 nM in the assay with HT-29 tumor cells (Homo sapiens, HT-29, 72 h).

What is called IC50 is the concentration needed to halve the response being measured.

Values taken from patent US8518958B2, “Pyrido [2,3-D] pyrimidines and their use as kinase inhibitors” (Forma Therapeutics, Inc., priority 2006, dated 2013).
